These results are taken from the NIST ThermoML archive (doi:10.1016/j.jct.2016.07.032).

Data set [1] is described as follows: refractive index (Na D-line) (dimensionless). Particulars: 101.3 kPa, Liquid, Standard Abbe refractometry.
For data set [2] the following is noted: 101.3 kPa, Liquid; for speed of sound: Frequency=3 MHz, Sing-around technique in a fixed-path interferometer; for mass density: Vibrating tube method.
Data set [3] can be described thus: xn = mol fraction of the nth substance listed. Particulars: 101.3 kPa, Liquid, x2 = 0; for speed of sound: Frequency=3 MHz, Sing-around technique in a fixed-path interferometer; for mass density: Vibrating tube method.
Data set [4] can be described thus: refractive index (Na D-line) (dimensionless); xn = mol fraction of the nth substance listed. Particulars: 101.3 kPa, Liquid, Standard Abbe refractometry, x2 = 0.

Numbers after ± are expanded uncertainties.

One may read the refractive index as a measure of how strongly the sample bends light. A word on the speed of sound: it is how fast a sound wave travels through the sample. By mass density is commonly meant the mass of a sample divided by its volume. `C1CCOC1` [tetrahydrofuran]: the refractive index in data set [1] (298 K) is 1.405 ± 0.002; in data set [1] (303 K), 1.403 ± 0.002; in data set [1] (308 K), 1.4 ± 0.002. For the same compound, the speed of sound in data set [2] (298 K) is on record as 1278 ± 2 m/s; in data set [2] (303 K), 1254 ± 2 m/s; in data set [2] (308 K), 1230 ± 2 m/s. Moreover, the mass density in data set [2] (298 K) is reported as 882 ± 2 kg/m3; in data set [2] (303 K) it was 878 ± 2 kg/m3; in data set [2] (308 K), 874 ± 2 kg/m3.
On to `CN(C)C=O` [dimethylformamide], for which the refractive index in data set [1] (298 K) came to 1.429 ± 0.002; in data set [1] (303 K), 1.427 ± 0.002; in data set [1] (308 K), 1.425 ± 0.002. Further, the values for the speed of sound in data set [2] (298 K), in data set [2] (303 K) and in data set [2] (308 K) were 1457 ± 2 m/s, 1437 ± 2 m/s and 1420 ± 2 m/s, respectively. For the same compound, the results for the mass density in data set [2] (298 K), in data set [2] (303 K) and in data set [2] (308 K) were 944 ± 2 kg/m3, 939 ± 2 kg/m3 and 935 ± 2 kg/m3, respectively.
`CCOc1ccccc1` [ethoxybenzene]: the refractive index in data set [1] (298 K) is 1.505 ± 0.002; in data set [1] (303 K) it was 1.503 ± 0.002; in data set [1] (308 K), 1.499 ± 0.002. Besides, the speed of sound in data set [2] (298 K) is reported as 1369 ± 2 m/s; in data set [2] (303 K), 1349 ± 2 m/s; in data set [2] (308 K), 1329 ± 2 m/s. Also, the mass density is given as 960 ± 2 kg/m3 in data set [2] (298 K), 955 ± 2 kg/m3 in data set [2] (303 K) and 951 ± 2 kg/m3 in data set [2] (308 K).
Turning to `CN1CCCC1=O` [N-methylpyrrolidone], the refractive index was found to be 1.467 ± 0.002 in data set [1] (298 K), 1.466 ± 0.002 in data set [1] (303 K) and 1.464 ± 0.002 in data set [1] (308 K). The speed of sound is reported as 1546 ± 2 m/s in data set [2] (298 K), 1526 ± 2 m/s in data set [2] (303 K) and 1507 ± 2 m/s in data set [2] (308 K). In addition, the mass density in data set [2] (298 K) is listed as 1026 ± 2 kg/m3; in data set [2] (303 K) it was 1022 ± 2 kg/m3; in data set [2] (308 K), 1018 ± 2 kg/m3.
In the case of `CN1CCCC1=O` [N-methylpyrrolidone] + CCOc1ccccc1, the speed of sound in data set [3] (298 K) worked out at 1546 ± 2 m/s; in data set [3] (303 K), 1526 ± 2 m/s; in data set [3] (308 K), 1507 ± 2 m/s. Besides, the results for the mass density in data set [3] (298 K), in data set [3] (303 K) and in data set [3] (308 K) were 1026 ± 2 kg/m3, 1022 ± 2 kg/m3 and 1018 ± 2 kg/m3, respectively. Further, the refractive index in data set [4] (298 K) was determined as 1.467 ± 0.002; in data set [4] (303 K), 1.466 ± 0.002; in data set [4] (308 K), 1.464 ± 0.002.
As for `CN(C)C=O` [dimethylformamide] + CCOc1ccccc1, the speed of sound in data set [3] (298 K) is listed as 1457 ± 2 m/s; in data set [3] (303 K), 1437 ± 2 m/s; in data set [3] (308 K), 1420 ± 2 m/s. Also, the figures for the mass density in data set [3] (298 K), in data set [3] (303 K) and in data set [3] (308 K) were 944 ± 2 kg/m3, 939 ± 2 kg/m3 and 935 ± 2 kg/m3, respectively. Besides, the results for the refractive index in data set [4] (298 K), in data set [4] (303 K) and in data set [4] (308 K) were 1.429 ± 0.002, 1.427 ± 0.002 and 1.425 ± 0.002, respectively.
Turning to `C1CCOC1` [tetrahydrofuran] + CCOc1ccccc1, the speed of sound came out at 1278 ± 2 m/s in data set [3] (298 K), 1254 ± 2 m/s in data set [3] (303 K) and 1230 ± 2 m/s in data set [3] (308 K). Besides, the mass density in data set [3] (298 K) was 882 ± 2 kg/m3; in data set [3] (303 K), 878 ± 2 kg/m3; in data set [3] (308 K) it was 874 ± 2 kg/m3. Moreover, the refractive index worked out at 1.405 ± 0.002 in data set [4] (298 K), 1.403 ± 0.002 in data set [4] (303 K) and 1.4 ± 0.002 in data set [4] (308 K).
